Type in all cases: biochemical
In assay [1] the target is T1, recombinant human FAK (Homo sapiens, UniProt Q05397).
T1 construct: purchased Invitrogen PV3832; host or cells: baculovirus expression system
Description: FAK Enzyme Assay (TRF detection). The conditions noted are these: 10 μM ATP; average of two or more determinations; class symbols. On the procedure: Example compounds were tested for their ability to inhibit the kinase activity of baculovirus-expressed recombinant human FAK using the TRF detection system as described above for JAK2. IC50 runs were performed in 96-well Costar high binding plates (#3922). The plates were coated first with 100 μL/well of 10 μg/mL neutravidin in TBS at 37° C. for 2 h, followed by 100 μL/well of 1 μg/mL 15-mer peptide substrate (biotinyl-amino-hexanoyl-EQEDEPEGDYFEWLE-amide) at 37° C. for another hour. The FAK assay mixture (total volume=100 μL/well) consisting of 20 mM HEPES, pH 7.2, 10 μM ATP, 5 mM MgCl2, 0.5 mM DTT, 0.1% BSA, and test compound (diluted in DMSO; 2.5% DMSO final in assay) was then added to the assay plate. Enzyme (10 ng/mL FAK, Invitrogen #PV3832) was added and the reaction was allowed to proceed at room temperature for 30 minutes. Detection of the phosphorylated product was performed by adding 100 μL/well of Eu—N1 labeled PY100 antibody (diluted 1:75000 in antibody dilution buffer). Samples were incubated at room temperature for 1 hour, followed by addition of 100 μL enhancement solution. Plates were agitated for 10 minutes and fluorescence of the resulting solution measured using the PerkinElmer EnVision™ 2102 (or 2104) multi-label plate reader.
(§1) Data analysis was performed using ActivityBase (IDBS, Guilford, UK). IC50 values were calculated by plotting percent inhibition versus log10 of the concentration of compound and fitting to the nonlinear regression sigmoidal dose-response (variable slope) equation in XLFit (IDBS, Guilford, UK).

For assay [2], the target named is T2, baculovirus-expressed JAK2 (Homo sapiens, UniProt O60674).
T2 construct: host or cells: baculovirus expression system
Description: JAK2 Kinase Assay (TRF detection). The conditions noted are these: 0.2 μM ATP; average of two or more determinations; class symbols. The method, then:
Compounds were tested for their ability to inhibit the kinase activity of baculovirus-expressed JAK2 using the TRF detection system. IC50 runs were conducted in 96-well Costar high binding plates (Corning Costar #3922, Corning, N.Y.). The plates were coated first with 100 μL/well of 10 μg/mL Neutravidin (Pierce #31000, Rockford, Ill.) in TBS at 37° C. for 2 hours, followed by 100 μL/well of 1 μg/mL 15-mer peptide substrate (biotinyl-amino-hexanoyl-EQEDEPEGDYFEWLE-amide, Infinity Biotech Research and Resource, Aston, Pa.) at 37° C. for another hour. The JAK2 assay mixture (total volume=100 μL/well) consisting of 20 mM HEPES, pH 7.2, 0.2 μM ATP, 1 mM MnCl2, 0.1% BSA, and test compound (diluted in DMSO; 2.5% DMSO final in assay) was then added to the assay plate. Enzyme (15 ng/ml JAK2) was added and the reaction was allowed to proceed at room temperature for 20 minutes. Detection of the phosphorylated product was performed by adding 100 μL/well of Eu—N1 labeled PY100 antibody (PerkinElmer Life Sciences #AD0041, Boston, Mass.). Incubation at the room temperature then proceeded for 1 hour, followed by addition of 100 μl enhancement solution (PerkinElmer Life Sciences #1244-105, Boston, Mass.). The plate was gently agitated and after thirty minutes, the fluorescence of the resulting solution was measured using the PerkinElmer EnVision™ 2102 (or 2104) multi-label plate reader.
as §1

Assay [3] deals with T3, human insulin receptor cytoplasmic domain (βIRCD) (Homo sapiens, UniProt P06213).
T3 construct: human insulin receptor cytoplasmic domain (βIRCD); host or cells: baculovirus expression system
Description: Insulin Receptor Kinase Assay (TRF). The conditions noted are these: 20 μM ATP, read-out: IR IC50. The method, then:
Example compounds were tested for their ability to inhibit the kinase activity of baculovirus-expressed human insulin receptor cytoplasmic domain (βIRCD) using the TRF assay as described above for ALK. Phosphorylation of the substrate, recombinant GST-PLC-γ, was detected with a europium-labeled anti-phosphotyrosine antibody and measured by TRF. Each 96-well plate (Greiner#655074) was coated with 100 μL/well of 20 μg/mL substrate solution in TBS. The IR assay mixture (total volume=100 μL/well) consisting of 20 mM HEPES (pH 7.2), 20 μM ATP, 5 mM MnCl2, 0.1% BSA, and test compound (diluted in DMSO; 2.5% DMSO final in assay) was added to the assay plates. Enzyme (20 ng/mL βIRCD) was added and the reaction was allowed to proceed at room temperature for 20 minutes. Detection of the phosphorylated product was performed by adding 100 μL/well of Eu—N1 labeled PY100 antibody (PerkinElmer#AD0160; diluted 1:10,000 in TBS-T containing 0.25% BSA). Incubation at 37° C. for 1 hour was followed by addition of 50 μL enhancement solution (Wallace#1244-105). Plates were agitated for 10 minutes and the fluorescence was measured using the PerkinElmer EnVision™ 2102 or 2104 multi-label plate reader.
as §1

Assay [4] deals with T4, baculovirus-expressed ALK (Homo sapiens, UniProt Q9UM73).
T4 construct: host or cells: baculovirus expression system
Description: ALK Kinase Assay (ELISA/TRF). The settings on record: 1 μM ATP (Km level). On the procedure:
Briefly, each 96-well plate was coated with 100 μL/well of 10 μg/mL substrate (GST-PLC-γ) in Tris-buffered saline (TBS). […] The reaction was initiated by adding enzyme (30 ng/mL ALK) and was allowed to proceed at 37° C. for 15 minutes. Detection of the phosphorylated product was performed by adding 100 μL/well of Eu—N1 labeled PT66 antibody (Perkin Elmer #AD0041). […] Data analysis was performed using ActivityBase (IDBS, Guilford, UK). IC50 values were calculated by plotting percent inhibition versus log10 of the concentration of compound and fitting to the nonlinear regression sigmoidal dose-response (variable slope) equation in XLFit (IDBS, Guilford, UK).
For orientation: In an ELISA, binding on a coated surface is turned into a signal by an enzyme label.

Where [5] appears, read: average of two or more determinations, class symbols.

Structures can show the parent of a compound that is named as a salt. Where two headings read alike, the source gives them in different places.

T1 sequence (Q05397 whole entry): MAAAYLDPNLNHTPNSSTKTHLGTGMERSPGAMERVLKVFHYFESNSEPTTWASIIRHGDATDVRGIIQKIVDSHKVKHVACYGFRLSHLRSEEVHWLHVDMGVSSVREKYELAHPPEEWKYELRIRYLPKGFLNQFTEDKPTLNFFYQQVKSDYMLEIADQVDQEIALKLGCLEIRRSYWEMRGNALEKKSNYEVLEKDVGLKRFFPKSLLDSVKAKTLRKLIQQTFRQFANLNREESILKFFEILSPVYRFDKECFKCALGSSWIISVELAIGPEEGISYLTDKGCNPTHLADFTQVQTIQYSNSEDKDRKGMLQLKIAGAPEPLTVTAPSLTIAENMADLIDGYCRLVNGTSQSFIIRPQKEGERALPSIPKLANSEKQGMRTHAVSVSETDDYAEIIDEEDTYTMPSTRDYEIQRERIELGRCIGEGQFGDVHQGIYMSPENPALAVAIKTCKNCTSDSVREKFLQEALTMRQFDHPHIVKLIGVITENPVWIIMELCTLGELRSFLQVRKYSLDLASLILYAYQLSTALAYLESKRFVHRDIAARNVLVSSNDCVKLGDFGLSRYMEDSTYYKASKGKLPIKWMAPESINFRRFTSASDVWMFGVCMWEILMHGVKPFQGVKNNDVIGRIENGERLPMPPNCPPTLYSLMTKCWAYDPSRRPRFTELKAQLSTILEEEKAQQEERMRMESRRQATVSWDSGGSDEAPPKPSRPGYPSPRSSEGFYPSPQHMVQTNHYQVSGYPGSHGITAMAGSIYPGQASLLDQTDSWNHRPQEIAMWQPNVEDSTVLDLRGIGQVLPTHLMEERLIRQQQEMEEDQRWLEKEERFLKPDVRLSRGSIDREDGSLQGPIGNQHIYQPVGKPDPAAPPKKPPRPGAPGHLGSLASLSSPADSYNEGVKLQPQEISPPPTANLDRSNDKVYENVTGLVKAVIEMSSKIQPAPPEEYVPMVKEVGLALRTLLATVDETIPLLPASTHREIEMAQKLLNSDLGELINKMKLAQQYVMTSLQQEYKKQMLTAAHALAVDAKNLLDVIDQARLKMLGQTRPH
T3 sequence (P06213 980-1382 limits assumed): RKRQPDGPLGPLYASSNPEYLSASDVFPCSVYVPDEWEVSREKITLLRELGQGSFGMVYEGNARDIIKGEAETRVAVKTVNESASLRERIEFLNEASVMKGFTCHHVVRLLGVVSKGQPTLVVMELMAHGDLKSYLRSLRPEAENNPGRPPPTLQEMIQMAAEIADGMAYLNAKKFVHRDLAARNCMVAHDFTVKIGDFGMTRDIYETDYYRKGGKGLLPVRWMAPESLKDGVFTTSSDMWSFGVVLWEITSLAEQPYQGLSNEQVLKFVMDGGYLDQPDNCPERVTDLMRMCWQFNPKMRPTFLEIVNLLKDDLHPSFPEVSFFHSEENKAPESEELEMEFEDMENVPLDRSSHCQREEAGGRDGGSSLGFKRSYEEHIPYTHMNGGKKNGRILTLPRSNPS
T2 sequence (O60674 whole entry): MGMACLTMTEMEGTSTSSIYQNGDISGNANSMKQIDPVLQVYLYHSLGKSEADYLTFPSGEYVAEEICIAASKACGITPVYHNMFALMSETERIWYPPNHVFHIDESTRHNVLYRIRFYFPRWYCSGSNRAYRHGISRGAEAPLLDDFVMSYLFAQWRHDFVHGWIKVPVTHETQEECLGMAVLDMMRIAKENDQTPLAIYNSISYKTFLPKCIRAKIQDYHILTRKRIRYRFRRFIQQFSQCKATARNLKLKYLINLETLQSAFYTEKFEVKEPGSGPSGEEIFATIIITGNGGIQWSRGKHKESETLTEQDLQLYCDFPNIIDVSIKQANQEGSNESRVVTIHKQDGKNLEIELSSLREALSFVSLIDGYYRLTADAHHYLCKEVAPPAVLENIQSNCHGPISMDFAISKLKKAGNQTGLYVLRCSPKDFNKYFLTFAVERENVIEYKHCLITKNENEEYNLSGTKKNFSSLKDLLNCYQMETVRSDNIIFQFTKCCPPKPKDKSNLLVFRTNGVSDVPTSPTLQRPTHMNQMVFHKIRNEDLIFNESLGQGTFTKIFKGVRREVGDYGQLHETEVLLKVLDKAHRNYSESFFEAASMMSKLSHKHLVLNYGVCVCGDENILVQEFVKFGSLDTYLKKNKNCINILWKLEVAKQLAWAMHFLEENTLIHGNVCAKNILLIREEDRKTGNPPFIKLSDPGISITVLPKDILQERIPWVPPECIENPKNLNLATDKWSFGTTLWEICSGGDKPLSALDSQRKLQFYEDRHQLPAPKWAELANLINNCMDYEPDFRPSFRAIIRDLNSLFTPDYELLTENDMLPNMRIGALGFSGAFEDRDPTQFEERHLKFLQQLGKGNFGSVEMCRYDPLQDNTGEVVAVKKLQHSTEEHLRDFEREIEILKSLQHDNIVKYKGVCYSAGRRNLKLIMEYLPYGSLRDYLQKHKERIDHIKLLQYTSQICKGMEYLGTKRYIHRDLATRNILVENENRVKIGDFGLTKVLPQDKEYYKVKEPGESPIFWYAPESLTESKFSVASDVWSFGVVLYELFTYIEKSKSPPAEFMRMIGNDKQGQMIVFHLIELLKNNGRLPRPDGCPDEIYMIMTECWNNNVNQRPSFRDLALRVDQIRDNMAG
T4 sequence (Q9UM73 19-1620): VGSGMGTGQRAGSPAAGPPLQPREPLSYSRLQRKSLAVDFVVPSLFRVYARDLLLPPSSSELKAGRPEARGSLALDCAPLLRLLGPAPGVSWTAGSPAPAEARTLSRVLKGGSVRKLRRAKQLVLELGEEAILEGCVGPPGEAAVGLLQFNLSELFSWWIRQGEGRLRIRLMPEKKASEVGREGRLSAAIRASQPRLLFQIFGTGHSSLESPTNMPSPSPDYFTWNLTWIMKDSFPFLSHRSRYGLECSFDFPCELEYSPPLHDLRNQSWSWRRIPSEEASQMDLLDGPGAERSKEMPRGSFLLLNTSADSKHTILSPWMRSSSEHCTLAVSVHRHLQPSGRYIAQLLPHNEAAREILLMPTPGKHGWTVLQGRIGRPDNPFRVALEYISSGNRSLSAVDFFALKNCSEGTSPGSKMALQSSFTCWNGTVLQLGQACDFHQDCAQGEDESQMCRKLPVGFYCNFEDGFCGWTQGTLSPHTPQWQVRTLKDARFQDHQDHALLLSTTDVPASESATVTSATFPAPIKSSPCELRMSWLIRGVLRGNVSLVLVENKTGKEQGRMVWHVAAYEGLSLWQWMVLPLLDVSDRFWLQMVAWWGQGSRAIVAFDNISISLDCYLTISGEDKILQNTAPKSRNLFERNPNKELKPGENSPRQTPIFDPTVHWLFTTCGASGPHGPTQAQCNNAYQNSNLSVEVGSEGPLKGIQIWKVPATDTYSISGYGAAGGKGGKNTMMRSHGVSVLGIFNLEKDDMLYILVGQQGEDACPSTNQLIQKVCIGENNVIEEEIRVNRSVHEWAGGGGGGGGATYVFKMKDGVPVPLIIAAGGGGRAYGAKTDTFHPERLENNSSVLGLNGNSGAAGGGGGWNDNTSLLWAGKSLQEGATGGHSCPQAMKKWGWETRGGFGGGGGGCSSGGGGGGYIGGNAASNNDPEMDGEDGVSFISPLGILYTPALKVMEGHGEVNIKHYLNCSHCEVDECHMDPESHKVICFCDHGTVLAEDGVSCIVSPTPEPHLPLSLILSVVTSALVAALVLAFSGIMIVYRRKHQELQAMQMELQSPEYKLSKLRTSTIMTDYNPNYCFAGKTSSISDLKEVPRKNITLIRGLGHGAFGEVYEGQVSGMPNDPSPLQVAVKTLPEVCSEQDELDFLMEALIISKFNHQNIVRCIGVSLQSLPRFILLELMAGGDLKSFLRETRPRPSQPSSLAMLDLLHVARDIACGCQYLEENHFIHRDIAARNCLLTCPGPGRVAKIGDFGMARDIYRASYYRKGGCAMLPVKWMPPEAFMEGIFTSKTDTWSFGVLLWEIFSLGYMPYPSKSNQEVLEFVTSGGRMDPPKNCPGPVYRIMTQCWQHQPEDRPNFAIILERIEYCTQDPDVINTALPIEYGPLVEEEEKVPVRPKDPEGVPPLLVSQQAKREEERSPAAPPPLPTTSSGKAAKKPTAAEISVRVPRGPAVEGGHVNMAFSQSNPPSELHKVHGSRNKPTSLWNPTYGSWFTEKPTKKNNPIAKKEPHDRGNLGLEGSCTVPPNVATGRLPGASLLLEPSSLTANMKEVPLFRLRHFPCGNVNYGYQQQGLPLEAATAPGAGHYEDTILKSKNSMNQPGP

As a reminder, the IC50 is the concentration needed to halve the response being measured. On to `CN1CCN(c2ccc3cc2CCc2cccc(c2)Nc2nc(ncc2Cl)N3)CC1` [Example 3, 6-Chloro-17-(4-methylpiperazin-1-yl)-2,4,8,22-tetraazatetracyclo[14.3.1.1^3,7.1^9,13]docosa-1(20),3(22),4,6,9(21),10,12,16,18-nonaene Trifluoroacetate (1:1)], for which the IC50 is 0.101 to 1 µM in assay [1], under 0.01 µM in assay [2] and 0.101 to 1 µM in assay [3] (setting [5]).

As for `CN1CCN(c2ccc3cc2/C=C\c2cccc(c2)Nc2nc(ncc2Cl)N3)CC1` [Example 2, (14Z)-6-Chloro-17-(4-methylpiperazin-1-yl)-2,4,8,22-tetraazatetracyclo[14.3.1.1^3,7.1^9,13]docosa-1(20),3(22),4,6,9(21),10,12,14,16,18-decaene], the IC50 in assay [1] was 0.101 to 1 µM; in assay [2] it was under 0.01 µM; in assay [3] (setting [5]), 1 to 10 µM.

In the case of `COc1cc(N2CCN(C)CC2)c2cc1Nc1ncc(Cl)c(n1)Nc1cccc(c1)CC2` [Example 15, 6-Chloro-17-(4-methylpiperazin-1-yl)-19-methoxy-2,4,8,22-tetraazatetracyclo[14.3.1.1^3,7.1^9,13]docosa-1(20),3(22),4,6,9(21),10,12,16,18-nonaene Trifluoroacetate (1:1)], the results for the IC50 in assay [1], in assay [2] and in assay [3] (setting [5]) were 0.101 to 1 µM, 0.01 to 0.1 µM and 0.101 to 1 µM, respectively.

As to `COc1cc(N2CCN(C)CC2)c2cc1Nc1ncc(Cl)c(n1)Nc1cc(ccc1N(C)S(C)(=O)=O)CC2` [Example 5, 6-Chloro-10-(2-methanesulfonyl-methyl-amino)-17-(4-methylpiperazin-1-yl)-19-methoxy-2,4,8,22-tetraazatetracyclo[14.3.1.1^3,7.1^9,13]docosa-1(20),3(22),4,6,9(21),10,12,16,18-nonaene Trifluoroacetate (1:1)], the IC50 in assay [1] was under 0.01 µM; in assay [2] it was 0.01 to 0.1 µM; in assay [3] (setting [5]), 0.01 to 0.1 µM.

For the molecule `CNC(=O)c1ccc2cc1Nc1nc(ncc1Cl)Nc1ccc(N3CCN(C)CC3)c(c1)CC2` [Example 17, 6-Chloro-10-(N-methylcarboxamido)-17-(4-methylpiperazin-1-yl)-2,4,8,22-tetraazatetracyclo[14.3.1.1^3,7.1^9,13]docosa-1(20),3(22),4,6,9(21),10,12,16,18-nonaene Trifluoroacetate (1:1)], the concentration for half-maximal inhibition (IC50) in assay [1] is under 0.01 µM; in assay [2], under 0.01 µM; in assay [3] (setting [5]) it was 0.101 to 1 µM.

Regarding `FC(F)(F)c1cnc2nc1Nc1cccc(c1)CCc1cccc(c1)N2` [Example 30, 6-Trifluoromethyl-2,4,8,22-tetraazatetracyclo[14.3.1.1^3,7.1^9,13]docosa-1(20),3(22),4,6,9(21),10,12,16,18-nonaene Trifluoroacetate (1:1)], the IC50 was 1 to 10 µM in assay [1], over 3 µM in assay [4] (given as numeric bound) and 0.101 to 1 µM in assay [2].

Turning to `CN1CCN(c2ccc3cc2[C@H](O)[C@H](O)c2cccc(c2)Nc2nc(ncc2Cl)N3)CC1` [Example 27, (14R,15S)-6-chloro-17-(4-methylpiperazin-1-yl)-2,4,8,22-tetraazatetracyclo[14.3.1.1^3,7.1^9,13]docosa-1(20),3(22),4,6,9(21),10,12,16,18-nonaene-14,15-diol], the figures for the IC50 in assay [1] and in assay [2] were 1 to 10 µM and 0.01 to 0.1 µM, respectively.

On to `CN1CCN(c2ccc3cc2CCc2ccc(N(C)S(C)(=O)=O)c(c2)Nc2nc(ncc2Cl)N3)CC1` [Example 10, 6-Chloro-10-(2-methanesulfonyl-methyl-amino)-17-(4-methylpiperazin-1-yl)-2,4,8,22-tetraazatetracyclo[14.3.1.1^3,7.1^9,13]docosa-1(20),3(22),4,6,9(21),10,12,16,18-nonaene Trifluoroacetate (1:1)], for which the IC50 in assay [1] is under 0.01 µM; in assay [2], under 0.01 µM; in assay [3] (setting [5]), 0.101 to 1 µM.

With `CNC(=O)c1ccc2cc1Nc1nc(ncc1Cl)Nc1ccc(N3CCN(C)CC3)c(c1)/C=C\2` [Example 16, (14Z)-6-Chloro-10-(N-methylcarboxamido)-17-(4-methylpiperazin-1-yl)-2,4,8,22-tetraazatetracyclo[14.3.1.1^3,7.1^9,13]docosa-1(20),3(22),4,6,9(21),10,12,14,16,18-decaene], the IC50 in assay [1] lay in the range of 0.101 to 1 µM; in assay [4] (setting [5]), 0.101 to 1 µM; in assay [2] it was 0.01 to 0.1 µM.

With `COc1ccc2cc1Nc1nc(ncc1Cl)Nc1ccc(N3CCN(C)CC3)c(c1)CC2` [Example 14, 6-Chloro-10-methoxy-17-(4-methylpiperazin-1-yl)-2,4,8,22-tetraazatetracyclo[14.3.1.1^3,7.1^9,13]docosa-1(20),3(22),4,6,9(21),10,12,16,18-nonaene Trifluoroacetate (1:1)], the IC50 in assay [1] is 0.01 to 0.1 µM; in assay [2] it was under 0.01 µM; in assay [3] (setting [5]), 0.101 to 1 µM.

As for `COc1ccc2cc1Nc1nc(ncc1Cl)Nc1ccc(N3CCN(C)CC3)c(c1)/C=C\2` [Example 13, (14Z)-6-Chloro-10-methoxy-17-(4-methylpiperazin-1-yl)-2,4,8,22-tetraazatetracyclo[14.3.1.1^3,7.1^9,13]docosa-1(20),3(22),4,6,9(21),10,12,14,16,18-decaene], the values for the half-inhibitory concentration (IC50) in assay [1], in assay [2] and in assay [3] (given as numeric bound) were 0.101 to 1 µM, 0.01 to 0.1 µM and over 3 µM, respectively.

With `COc1cc(N2CCN(C)CC2)c2cc1Nc1ncc(Cl)c(n1)Nc1cc(ccc1S(=O)(=O)C(C)C)CC2` [Example 6, 6-Chloro-10-(propane-2-sulfonyl)-17-(4-methylpiperazin-1-yl)-19-methoxy-2,4,8,22-tetraazatetracyclo[14.3.1.1^3,7.1^9,13]docosa-1(20),3(22),4,6,9(21),10,12,16,18-nonaene Trifluoroacetate (1:1)], the IC50 in assay [1] is under 0.01 µM; in assay [2], 0.101 to 1 µM; in assay [3] (setting [5]), 0.01 to 0.1 µM.

`Clc1cnc2nc1Nc1cccc(c1)CCc1cc(ccc1OCCN1CCCC1)N2` [Example 23, 6-Chloro-17-[2-(pyrrolidin-1-yl)ethoxy]-2,4,8,22-tetraazatetracyclo[14.3.1.1^3,7.1^9,13]docosa-1(20),3(22),4,6,9(21),10,12,16,18-nonaene Trifluoroacetate (1:1)]: the IC50 in assay [1] was 0.01 to 0.1 µM; in assay [2], under 0.01 µM; in assay [3] (setting [5]), 0.101 to 1 µM.

For the origin of these results see patent publication US9487529B2, “Macrocyclic compounds as ALK, FAK and JAK2 inhibitors” (Cephalon, Inc., priority 2011, dated 2016).
